In US20250032493A1, “Methods for Treating Diseases Using MALT1 Inhibitors” (RARIFIED BIOSCIENCES, INC., priority 2021, published 2025):
Like-named read-outs stand apart in the source and are kept apart here.

How the values were obtained:
[1] = system: human monocyte-derived macrophages; experiment: Monocyte-derived macrophages stimulated with IgG immune complex; conditions: Macrophages (aIgG + IgG, immune-complex)
Method: (§2) After differentiation, cells were harvested with Accutase solution (Stemcell Technologies) and incubated for 2 h at 37° C., 5% CO2 in 96-well plates.

CD4+ Total T-cells = experiment: Total CD4+ T-cell cytokine release assay; assay type: cell-based, human; conditions: CD4+ Total T-cells (a-CD3/-CD28)
Method: All cytokine measurements were performed using commercially available kits and as per manufacturer's protocol. Supernatants from human whole blood and cellular assays were quantified using the human Proinflammatory Panel 1 (human) kit on a Sector Imager 6000 reader (Meso Scale Discovery, Rockville, MD). IL-17a was quantified using the V-Plex Human IL-17a kit on a Sector Imager 6000 reader (Meso Scale Discovery, Rockville, MD). Supernatants from rat whole blood assay were analyzed for IL-2 levels using the rat IL-2 Duoset ELISA kit (R&D). Plasma and synovial samples harvested from the rat CIA study were quantified for proinflammatory cytokines using the rat V-PLEX Proinflammatory Panel 2 kit (MSD).

splenic Tregs = experiment: Rat CIA model: splenic Treg levels; assay type: in vivo; conditions: for reduction in the Treg levels: CIA rats, in comparison to vehicle
Method: (§1) For isolation of synovial fluid prior to study termination, animals were anesthetized and the skin on the hind limbs were separated to ensure exposure of knee joint. A small incision was made near the top of the knee joint and the articular cavity was rinsed with 60 μl phosphate-buffered saline (PBS) for 2 time and ˜50-60 μl synovial fluid was collected. The synovial fluid samples were spun down, and the supernatant stored at −80° C. prior to cytokine analysis. At study termination, plasma was prepared from whole blood and stored at −80° C. prior to cytokine analysis and measurement of total and anti-collagen IgG. Single cell suspensions were prepared from harvested spleens following standard methods and Treg frequencies measured by flow cytometry-based immunophenotyping of freshly isolated cells.
Harvested spleens were homogenized in cold PBS and cellular debris removed by passing through a […] cell strainer. The cell suspension was centrifuged at 300×g for 5 min at 4° C. and the pellet was treated with 1×RBC lysis buffer per manufacturer's protocol (Thermofisher). The washed cell pellet was resuspended for a final concentration of 5-10×10^6 cells/ml and 100 μl of cell suspension was processed for immunophenotyping. […] Cells were washed with cold FACS wash buffer (BD) and fixed with 1×FoxP3/Transcription Factor Fixation Buffer (Thermofisher) for overnight at 4° C. […] Cells were washed 2-3× with the permeabilization and wash buffer as mentioned earlier, and finally resuspended in FACS wash buffer. Samples were acquired on a BD LSRFortessa flow cytometer and data analyzed using the FlowJo software (BD).

[2] = system: rat collagen induced arthritis (CIA) model; experiment: Rat collagen-induced arthritis model: clinical score
Text: Adult female Lewis Rats (180-200 g body weight) were immunized subcutaneously with Type II bovine collagen/Incomplete Freund's Adjuvant emulsion on Day 0 and Day 7. On Day 14 rats were randomized based on clinical disease scores in different treatment groups. Rats received either once daily (q.d) dose of compounds via oral gavage or Vehicle (0.5% Carboxymethylcellulose-Na+0.5% Tween 80 in water, suspension) for 2 weeks. Naïve rats used as controls.

Jurkat-T cells = experiment: Jurkat IL-2 assay; conditions: Jurkat-T cells (a-CD3/-CD28/-CD2); readout IL-2
Method: Cells were cultured in RPMI/10% FBS (Thermofisher) and maintained under a concentration of 3×10^6 cells/ml. MALT1i at different concentrations were stamped by ECHO onto 384-well plates (PerkinElmer, Waltham, MA) following which cells were plated in fresh media and incubated for 30 minutes before stimulation with soluble α-CD3/CD28/CD2 (ImmunoCult, Stemcell Technologies, Vancouver, Canada) for 24 h. Supernatants were collected as mentioned earlier and processed immediately for cytokine analysis or stored at −80° C. To assess viability of cells treated with compound, cells were lysed with CTG reagent (Promega, Madison, WI), and measured by luminometer.

Total B cells = experiment: B-cell proliferation assay (BCR/CD40L); conditions: readout Proliferation
Method: Freshly isolated total CD19^+ B-cells (Stemcell) from Human PBMCs were labeled with 2 μM Cell Trace Violet (ThermoFisher) and incubated for 5 min on a Nutator. […] Proliferation was assessed by flow cytometry.

[3] = system: human monocyte-derived macrophages; experiment: Monocyte-derived macrophages stimulated with depleted zymosan
Method: as §2

[4] = system: CD4+CD45RO+ Memory T-cells; experiment: Memory CD4+ T-cell cytokine release assay; conditions: Memory T-cells (a-CD3/-CD28/-CD2)
Method: Memory CD4^+ T-cells were isolated from human donor PBMCs using an EasySep kit (Stemcell) and were rested overnight in complete RPMI media (Thermofisher) supplemented with 10% FBS (Atlanta Biologics), 10 mM HEPES, 2 mM GlutaMAX, 1 mM Na Pyruvate, and 1×MEM non-essential amino acids (Thermofisher).

[5] = system: rat collagen induced arthritis (CIA) model; experiment: Rat CIA model: plasma and synovial cytokines, anti-collagen and total IgG; assay type: in vivo
Method: as §1
All cytokine measurements were performed using commercially available kits and as per manufacturer's protocol. Supernatants from human whole blood and cellular assays were quantified using the human Proinflammatory Panel 1 (human) kit on a Sector Imager 6000 reader (Meso Scale Discovery, Rockville, MD). IL-17a was quantified using the V-Plex Human IL-17a kit on a Sector Imager 6000 reader (Meso Scale Discovery, Rockville, MD). Supernatants from rat whole blood assay were analyzed for IL-2 levels using the rat IL-2 Duoset ELISA kit (R&D). […]

MALT1 = molecular target: T1, MALT1 (Homo sapiens, UniProt Q9UDY8); experiment: Example IC50 and IC90 values of MALT1 inhibitors (blood concentration targets); assay type: cell-based
T1 sequence (Q9UDY8 1-824): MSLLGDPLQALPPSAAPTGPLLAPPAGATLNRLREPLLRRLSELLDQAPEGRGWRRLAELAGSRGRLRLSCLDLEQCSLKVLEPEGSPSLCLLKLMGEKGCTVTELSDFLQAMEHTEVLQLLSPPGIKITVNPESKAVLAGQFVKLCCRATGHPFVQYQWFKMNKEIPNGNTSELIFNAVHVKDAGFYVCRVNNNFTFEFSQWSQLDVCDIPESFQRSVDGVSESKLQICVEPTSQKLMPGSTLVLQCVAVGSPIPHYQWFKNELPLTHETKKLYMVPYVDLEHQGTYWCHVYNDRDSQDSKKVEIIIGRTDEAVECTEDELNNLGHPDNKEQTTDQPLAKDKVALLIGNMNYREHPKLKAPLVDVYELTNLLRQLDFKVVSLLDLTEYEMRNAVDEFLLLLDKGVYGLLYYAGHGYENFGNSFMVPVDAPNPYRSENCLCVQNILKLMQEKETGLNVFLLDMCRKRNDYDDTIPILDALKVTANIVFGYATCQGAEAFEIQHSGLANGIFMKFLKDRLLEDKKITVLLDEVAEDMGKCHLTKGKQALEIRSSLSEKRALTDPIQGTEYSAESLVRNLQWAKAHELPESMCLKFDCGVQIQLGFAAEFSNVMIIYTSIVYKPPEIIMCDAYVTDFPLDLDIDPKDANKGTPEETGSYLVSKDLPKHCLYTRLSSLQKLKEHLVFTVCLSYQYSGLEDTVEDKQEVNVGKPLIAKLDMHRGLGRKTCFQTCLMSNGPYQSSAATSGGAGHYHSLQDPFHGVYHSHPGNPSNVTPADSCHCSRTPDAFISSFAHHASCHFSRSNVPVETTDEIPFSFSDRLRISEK
Text: In various embodiments, the plasma PK profile of the MALT1 inhibitor refers to a time over an IC50 blood concentration target following administration to the subject. As used herein, a “time over an IC50 blood concentration target” refers to a period of time following administration in which a concentration of the MALT1 inhibitor in the subject's blood is above the IC50 value.
In various embodiments, the plasma PK profile of the MALT1 inhibitor refers to a time over an IC90 blood concentration target following administration to the subject. As used herein, a “time over an IC90 blood concentration target” refers to a period of time following administration in which a concentration of the MALT1 inhibitor in the subject's blood is above the IC90 value.

Tregs = experiment: Mouse accelerated Lupus model: Treg levels; assay type: in vivo, mice; conditions: 3 and 30 mg/kg daily
Method: In this example, REO-528 MALT1 inhibitor was administered to mice of an accelerated Lupus Nephritis model (IFN-alpha accelerated) to investigate the impact of the administration of the MALT1 inhibitor. Mice were divided into 6 groups: 1) Naïve, 2) vehicle (weeks 13-18), 3) REO538 (3 mg/kg) daily administration weeks 13-18, 4) REO-538 (30 mg/kg) daily administration weeks 13-18, 5) REO-538 (30 mg/kg) daily administration weeks 15-18, and 6) BID dexamethasone (Dex) at 1 mg/kg for weeks 15-18. Groups 2 through 6 were also administered AAV encoding mIFNα to accelerate the lupus nephritis disease.

**Q.** For `CO[C@@H](C)c1c(NC(=O)Nc2ccnc(C(F)(F)F)c2)cnc2cc(Cl)nn12` [REO-981], which “Effect size (% Max. inhibition)” value ([1]; readout IL-6) is on record?
**A.** The value was >75%.

**Q.** And the “Effect size (% Max. inhibition)” value ([1]; readout TNFa)?
**A.** Its value is ~74%.

**Q.** And the “Effect size (% Max. inhibition)” value (CD4+ Total T-cells; readout IFNg)?
**A.** Its value is >95%.

**Q.** And the “Effect size (% Max. inhibition)” value (CD4+ Total T-cells; readout IL-2)?
**A.** The value was >95%.

**Q.** And the “Effect size (% Max. inhibition)” value (CD4+ Total T-cells; readout TNFa)?
**A.** Its value is ~85%.

**Q.** What about the “log10Ctrough value at ~40% reduction in Treg levels” value (splenic Tregs; rat, in vivo) of the same molecule?
**A.** Its value is ~3.3 ng/mL.

**Q.** What about the “log10Ctrough value at ~50% reduction in the clinical score” value ([2]; rat, in vivo) of the same molecule?
**A.** The value was ~2.6 ng/mL.

**Q.** What about the “Effect size (% Max. inhibition)” value (Jurkat-T cells) of the same molecule?
**A.** The value was >95%.

**Q.** What about the “Effect size (% Max. inhibition)” value (Total B cells) of the same molecule?
**A.** The value was ~60%.

**Q.** And the “Effect size (% Max. inhibition)” value ([3]; readout IL-6)?
**A.** The value was >60%.

**Q.** What about the “Effect size (% Max. inhibition)” value ([3]; readout TNFa) of the same molecule?
**A.** The value was >75%.

**Q.** What about the “Effect size (% Max. inhibition)” value ([4]; readout IFNg) of the same molecule?
**A.** The value was ~80%.

**Q.** And the “Effect size (% Max. inhibition)” value ([4]; readout IL-2)?
**A.** Its value is >90%.

**Q.** And the “Effect size (% Max. inhibition)” value ([4]; readout IL-17)?
**A.** The value was >90%.

**Q.** What about the “Effect size (% Max. inhibition)” value ([4]; readout TNFa) of the same molecule?
**A.** The value was ~85%.

**Q.** For `CN(C(=O)C1CCS(=O)(=O)CC1)[C@@H](c1ccc(Nc2cnc3cccnc3c2C2CC2)cc1)C(F)(F)F` [REO-538], which “reduction in the Treg levels” value (splenic Tregs; 1 mg/kg dose) is on record?
**A.** Its value is 1%.

**Q.** And the “reduction in the Treg levels” value (splenic Tregs; 10 mg/kg dose)?
**A.** Its value is 49%.

**Q.** What about the “log10AUC value at ~40% reduction in Treg levels” value (splenic Tregs; rat CIA model) of the same molecule?
**A.** Its value is ~2.0 μg*hr/mL.

**Q.** What about the “qualitative Treg impact (FIG. 11)” value (splenic Tregs; rat CIA model) of the same molecule?
**A.** Its value is “low Treg impact”.

**Q.** And the “reduction in the clinical score” value ([2]; 0.3 mg/kg dose, in comparison to the vehicle treatment)?
**A.** The value was 26%.

**Q.** What about the “reduction in the clinical score” value ([2]; 1 mg/kg dose, in comparison to the vehicle treatment) of the same molecule?
**A.** Its value is 59%.

**Q.** What about the “reduction in the clinical score” value ([2]; 3 mg/kg dose, in comparison to the vehicle treatment) of the same molecule?
**A.** The value was 65%.

**Q.** What about the “reduction in the clinical score” value ([2]; 10 mg/kg dose, in comparison to the vehicle treatment) of the same molecule?
**A.** Its value is 80%.

**Q.** And the “reduction in the clinical score” value ([2]; Example 6: daily 3 mg/kg for 14 days, vs vehicle)?
**A.** Its value is 25%.

**Q.** What about the “reduction in the clinical score” value ([2]; Example 6: daily 10 mg/kg for 2 days followed by daily 3 mg/kg for 12 days, vs vehicle) of the same molecule?
**A.** The value was 43%.

**Q.** And the “reduction in the clinical score” value ([2]; Example 6: daily 10 mg/kg for 14 days, vs vehicle)?
**A.** Its value is 70%.

**Q.** What about the “log10AUC value at ~50% reduction in the clinical score” value ([2]; rat CIA model) of the same molecule?
**A.** Its value is ~1.2 μg*hr/mL.

**Q.** And the “qualitative efficacy (FIG. 11)” value ([2]; rat CIA model)?
**A.** Its value is “high efficacy”.

**Q.** And the “IL-1beta and IL-6 in synovial fluid” value ([5]; 10 mg/kg and 10+3 mg/kg groups in comparison to the 3 mg/kg group)?
**A.** Its value is “lower”.

**Q.** What about the “KC/GRO and TNFα in synovial fluid” value ([5]; each of the 3 mg/kg, 10 mg/kg and 10+3 mg/kg groups in comparison to vehicle) of the same molecule?
**A.** Its value is “lower levels”.

**Q.** And the IC90 (MALT1; example values, blood concentration target, read-out: IC90)?
**A.** The IC90 was 10.4 µM.

**Q.** And the IC90 (MALT1; higher dotted line of FIG. 13B, read-out: IC90 value (estimated))?
**A.** Its IC90 is ~1 µg/mL.

**Q.** And the IC50 (MALT1; lower dotted line of FIG. 13B, read-out: estimated IC50 value (converted))?
**A.** The IC50 was ~0.376 µM.

**Q.** And the Treg levels (Tregs)?
**A.** The Treg levels was “reduced Treg levels in a dose dependent manner”.
